Results from ChEMBL document CHEMBL1123354, “Antitumor agents. 78. Inhibition of human DNA topoisomerase II by podophyllotoxin and alpha-peltatin analogues” (J Med Chem, 1986).

Columns and labels:
[1] = target: T1, DNA topoisomerase II (Homo sapiens) (UniProt P11388+Q02880); test: (§1) Compound was tested for percentage inhibition against DNA topoisomerase II; format: protein assay; design: concentration or dose not given beside the values; conditions: concentration not given here
[2] = target: T1, DNA topoisomerase II (Homo sapiens); test: as §1; format: protein assay; conditions: concentration not given here

Compound | inhibition [1] | inhibition [2]
COc1cc([C@@H]2c3cc4c(cc3[C@@H](O[C@@H]3O[C@@H]5CO[C@@H](C)O[C@H]5[C@H](O)[C@H]3O)[C@H]3COC(=O)[C@H]23)OCO4)cc(OC)c1O | 85% | –
COc1cc([C@@H]2c3cc4c(c(O)c3C[C@H]3COC(=O)[C@@H]32)OCO4)cc(OC)c1O | 20% | –
COc1cc([C@@H]2c3cc4c(c(OC(C)=O)c3CC3COC(=O)[C@@H]32)OCO4)cc(OC)c1OC(C)=O (some centres undefined) | – | 10%
COc1cc([C@@H]2c3cc4c(cc3[C@H](O)[C@H]3COC(=O)[C@H]23)OCO4)cc(OC)c1OC | 30% | –
COc1cc([C@@H]2c3cc4c(cc3[C@@H](O)[C@H]3COC(=O)[C@H]23)OCO4)cc(OC)c1O | 60% | –
COc1cc([C@@H]2c3cc(OC(C)=O)c(OC(C)=O)c(OC(C)=O)c3CC3COC(=O)[C@@H]32)cc(OC)c1OC(C)=O (some centres undefined) | – | 25%
CCO[C@@H]1c2cc3c(cc2[C@@H](c2cc(OC)c(O)c(OC)c2)[C@H]2C(=O)OCC12)OCO3 (some centres undefined) | 89% | –
COc1cc([C@@H]2c3cc4c(cc3[C@@H](O)C3COC(=O)[C@@H]32)OCO4)cc(O)c1O (some centres undefined) | – | 75%
COc1cc([C@@H]2c3cc(O)c(O)c(O)c3CC3COC(=O)[C@@H]32)cc(OC)c1O (some centres undefined) | – | 45%
